{"source": "patent US10308631B2", "about": "“Selective anti-cancer compounds” (NATIONAL UNIVERSITY OF SINGAPORE, priority 2015, dated 2019)", "key": {"[1]": {"system": "autophagosome marker LC3 (LC3 II/LC3 I) in transformed BJ cells", "assay": "Immunoblot analysis of autophagosome marker LC3 (lysosome function), derivatives of Compound 1", "assay_type": "cell-based", "details": "Homo sapiens, band intensities LC3 II/LC3 I vs DMSO control, 24 h", "protocol": "(§1) FIG. 4 compares the ability of Compound 1 (a131), and various derivatives thereof (referred to using their code numbers for brevity; the designated chemical compound for each code number is provided in the chemical examples section below), to inhibit autophagy and/or mitosis. BJ transformed cells were treated with 5 μM of various Compounds as shown, for 24 h. Cells were harvested and total lysates were analysed by detecting the mitotic marker phospho-histone H3 at serine 10 (pH3 (Ser10)) and the autophagosome marker LC3. Antibodies raised against β-actin were used as an internal loading control.\n(§2) The ability of Compound 1 to inhibit lysosome function was examined using immunoblotting. HeLa cervical cancer cells were cultured in Dulbecco's modified Eagle's medium (DMEM) supplemented with 10% Fetal Bovine Serum (FBS, Thermo Scientific). The HeLa cells were treated with different concentrations of Compound 1 (0.625, 1.25, 2.5, 5 and 10 μM, dimethyl sulfoxide (DMSO, Kanto Kagaku)), chloroquine (CQ) (1.25, 2.5, 10, 50 and 100 μM, DMSO) or DMSO for 6 h. Then, the treated cells were harvested and lysed in 1% triton lysis buffer [25 mM Tris HCl (pH8.0), 150 mM NaCl, 1% triton-X100, 1 mM dithiothreitol (DTT), protease inhibitor mix (Complete Mini, Roche) and phosphatase inhibitor (PhosphoStop, Roche)]. The proteins in total lysates were boiled with sample buffer (60 mM Tris-HCl (pH 6.8), 25% glycerol, 2% SDS, 14.4 mM 2-mercaptoethanol, 0.1% bromophenol blue) and resolved by 14% tris-glycine sodium dodecyl sulfate polyacrylamide gel electrophoresis (SDS-PAGE) and subjected to immunoblot analysis.\n(§3) Defects in lysosome function and inhibition of autophagy can be measured by accumulation of LC3-phosphatidylethanolamine conjugated non-soluble form (LC3-II), which are converted from soluble LC3-I. Thus, antibodies raised against LC3 (Cell Signaling, Cat#4108) were used to determine lysosomal function and integrity. Antibodies raised against phosphorylated histone H3 at serine 10 residue (pH3) (Cell signaling, Cat#3377) were used as the marker for mitotic dysfunction and arrest. Antibodies raised against β-actin (Millipore, Cat#MAB1501) were used as an internal loading control. The inhibitory ability of Compound 1 was also quantitatively compared to CQ.\n(§4) Derivatives of Compound 1 were tested to see if they had similar dual activity, or presented only one of the activities of Compound 1. The protocol for immunoblot analysis described in Biology Example 1 was applied to the additional indicated compounds.\n(§5) Activities of compounds were determined by two independent experiments. First, Compounds were classified according to the intensity of increase in each of the mitotic marker phospho-histone H3 at serine 10 (pH3 (Ser 10)) and the autophagosome marker LC3, respectively, at 1.25 μM, when compared with 1.25 μM Compound 1 (a131).\n(§6) Compounds classified “++” on either “mitosis” or “inhibits lysosome” show similar increase in each of the mitotic marker phospho-histone H3 at serine 10 (pH3 (Ser10)) and the autophagosome marker LC3, respectively, at 2.5 μM, when compared with 1.25 μM Compound 1 (a131); and compounds classified “+” on either “mitosis” or “inhibits lysosome” show similar increase in each of the mitotic marker phospho-histone H3 at serine 10 (pH3 (Ser10)) and the autophagosome marker LC3, respectively, at a concentration range of 5-10 μM, when compared with 1.25 μM Compound 1 (a131).\nCompounds classified “+/−” on either “mitosis” or “inhibits lysosome” show less increase in each of the mitotic marker phospho-histone H3 at serine 10 (pH3 (Ser10)) and the autophagosome marker LC3, respectively, at a concentration range of 5-10 μM, when compared with 1.25 μM Compound 1 (a131). […]"}, "[2]": {"system": "pH3 (Ser10) and LC3 in BJ transformed cells", "assay": "Immunoblot classification of compounds by pH3 and LC3 (FIG. 4)", "assay_type": "cell-based, human", "details": "5 μM, 24 h", "protocol": "as §1, §4"}, "[3]": {"system": "mitotic marker phospho-histone H3 at serine 10 (pH3 (Ser10)) in transformed BJ cells", "assay": "Immunoblot analysis of mitotic marker pH3 (Ser10), derivatives of Compound 1", "assay_type": "cell-based", "details": "Homo sapiens, band intensities pH3(Ser10)/β-actin vs DMSO control, 24 h", "protocol": "as §1, §2, §3, §4, §5, §6\nCompounds classified “+/−” on either “mitosis” or “inhibits lysosome” show less increase in each of the mitotic marker phospho-histone H3 at serine 10 (pH3 (Ser10)) and the autophagosome marker LC3, respectively, at a concentration range of 5-10 μM, when compared with 1.25 μM Compound 1 (a131).\nNext, the ability of Compound 1 and its derivatives to induce mitotic arrest in transformed BJ cells was quantified as the fold induction of band intensities [pH3(Ser10)/β-actin] in comparison with DMSO control. […]"}, "[4]": {"system": "oncogene-transformed BJ cells", "assay": "PI staining and FACS analysis, sub-G1 cell death", "assay_type": "cell-based, human", "details": "for cell death (population of cells in sub-G1) / cell death: 48 h; for cell death (population of cells in sub-G1): Compound 1 2.5 μM, other Group 1 and Group 2 compounds 10 μM, Compound 3 5 μM (FIG. 5A)", "protocol": "FIG. 5A is a histogram showing the ability of Compound 1 (a131) and its derivatives Compound 2 (a156), Compound 16 (b5), Compound 17 (b9), all in Group 1; Compound 29 (a219), Compound 13 (b12), Compound 11 (b15), Compound 12 (b16), Compound 25 (a166), all in Group 2; and Compound 3 (a159) from Group 3, to induce cancer selective cell death. Isogenic non-transformed (normal) and oncogene-transformed BJ cells were treated with each compound for 48 h and cells were stained with propidium iodide (PI) and subjected to FACS analysis. The percentage of cells in sub-G1 phase is indicative of the extent of cell death. […] In contrast, the ability of the compounds in Groups 2 and 3 to induce cancer selective cell death was markedly compromised (or reduced).\nThe Compounds 25 (a166) and 3 (a159) were selected from Group 2 and Group 3, respectively. Isogenic non-transformed normal and oncogene-transformed BJ cells were treated with or without 0.3 μM or 0.6 μM Compound 3 (a159) alone or together with 1.25 μM Compound 25 (a166) for 48 h. Cells were stained with propidium iodide (PI) and subjected to FACS analysis.\nIsogenic non-transformed and oncogene-transformed human fibroblast BJ cell lines were cultured in DMEM supplemented with 10% FBS. The cells were treated with Compound 1 (2.5 μM, DMSO). 48 h after treatment, the cells were fixed with ethanol at −30° C. overnight and stained with 20 μg/mL propidium iodide (PI) and 10 μg/mL RNase A for 30 min. These cells were then subjected to flow cytometry (FACS) analysis using MACSQuant (Miltenyi Biotec) to count the percentage of apoptotic cells in sub-G1 peak.\nThe above procedure was repeated for Group 1 Compounds 2, 16 and 17, Group 2 Compounds 29, 13, 11, 12 and 25 at a concentration of 10 μM, and Group 3 Compound 3 at a concentration of 5 μM.\nIsogenic non-transformed normal and oncogene-transformed BJ cells were cultured as in Biology Example 3. The cells were treated with a combination of Compound 3 (Group 3, at a concentration of 0.3 μM or 0.6 μM), and Compound 25 (Group 2, at a concentration of 1.25 μM) for 48 hours. Controls using DMSO, Compound 3 and Compound 25 alone (at the concentrations mentioned above) were also performed."}}}
{"compound": "N#C/C(=C\\c1cccc2cnccc12)c1c[nH]c2ccccc12", "note": "[Compound 1, (Z)-2-(1H-indol-3-yl)-3-(isoquinolin-5-yl)acrylonitrile]", "values": [{"measurement": "fold induction at 5 µM", "setting": "[1]", "value": 5}, {"measurement": "Inhibition of lysosome function and/or mitosis (FIG. 4)", "setting": "[2]", "value": "exhibit the dual properties of inhibiting both lysosome function and mitosis"}, {"measurement": "fold induction at 5 µM", "setting": "[3]", "value": 7.3}, {"measurement": "population of cells in sub-G1", "setting": "[4]; 2.5 and 5 μM, 24 h (FIG. 9A panels g-i)", "value": "massive increase in population of oncogene-transformed BJ cells in sub-G1"}, {"measurement": "cell death (population of cells in sub-G1)", "setting": "[4]", "value": "selectively induced cell death in oncogene-transformed BJ cells while sparing normal counterparts"}]}
{"compound": "N#C/C(=C\\c1cccc2ncccc12)c1c[nH]c2ccccc12", "note": "[Compound 3, (Z)-2-(1H-indol-3-yl)-3-(quinolin-5-yl)acrylonitrile]", "values": [{"measurement": "fold induction at 5 µM", "setting": "[1]", "value": 0.7}, {"measurement": "Inhibition of lysosome function and/or mitosis (FIG. 4)", "setting": "[2]", "value": "inhibit mitosis only"}, {"measurement": "fold induction at 5 µM", "setting": "[3]", "value": 10.5}, {"measurement": "cell death (population of cells in sub-G1)", "setting": "[4]", "value": "significantly induced cell death"}, {"measurement": "cell death", "setting": "[4]; Compound 3 alone at 0.3 μM", "value": "negligible effect"}, {"measurement": "cell death", "setting": "[4]; Compound 3 alone at 0.6 μM", "value": "−15", "unit": "%"}]}
{"compound": "CN1CCN(CC(=O)n2cc(/C(C#N)=C/c3cccc4cnccc34)c3ccccc32)CC1", "note": "[Compound 16, (Z)-3-(isoquinolin-5-yl)-2-(1-(2-(4-methylpiperazin-1-yl)acetyl)-1H-indol-3-yl)acrylonitrile]", "values": [{"measurement": "fold induction at 5 µM", "setting": "[1]", "value": 5}, {"measurement": "Inhibition of lysosome function and/or mitosis (FIG. 4)", "setting": "[2]", "value": "exhibit the dual properties of inhibiting both lysosome function and mitosis"}, {"measurement": "fold induction at 5 µM", "setting": "[3]", "value": 11.8}, {"measurement": "cell death (population of cells in sub-G1)", "setting": "[4]", "value": "selectively induced cell death in oncogene-transformed BJ cells while sparing normal counterparts"}]}
